Reference: publication PMC12251305 (Molecules, 2025)

Assays:
hNPFF1-R [1] = molecular target: T1, hNPFF1-R (Homo sapiens, UniProt Q9GZQ6); settings: inhibition of cAMP production induced by 2 μM forskolin; ref (46); read-out: Functional Activity hNPFF1-R EC50; cited from earlier work
T1 construct: expressed in transfected cells; host or cells: CHO cells

hNPFF2-R [2] = molecular target: T2, hNPFF2-R (Homo sapiens, UniProt Q9Y5X5); set-up: method as in earlier work; settings: inhibition of cAMP production induced by 2 μM forskolin; ref (46); read-out: Functional Activity hNPFF2-R EC50; cited from earlier work
T2 construct: expressed in transfected cells; host or cells: CHO cells (membranes)
T2 sequence (Q9Y5X5 whole entry): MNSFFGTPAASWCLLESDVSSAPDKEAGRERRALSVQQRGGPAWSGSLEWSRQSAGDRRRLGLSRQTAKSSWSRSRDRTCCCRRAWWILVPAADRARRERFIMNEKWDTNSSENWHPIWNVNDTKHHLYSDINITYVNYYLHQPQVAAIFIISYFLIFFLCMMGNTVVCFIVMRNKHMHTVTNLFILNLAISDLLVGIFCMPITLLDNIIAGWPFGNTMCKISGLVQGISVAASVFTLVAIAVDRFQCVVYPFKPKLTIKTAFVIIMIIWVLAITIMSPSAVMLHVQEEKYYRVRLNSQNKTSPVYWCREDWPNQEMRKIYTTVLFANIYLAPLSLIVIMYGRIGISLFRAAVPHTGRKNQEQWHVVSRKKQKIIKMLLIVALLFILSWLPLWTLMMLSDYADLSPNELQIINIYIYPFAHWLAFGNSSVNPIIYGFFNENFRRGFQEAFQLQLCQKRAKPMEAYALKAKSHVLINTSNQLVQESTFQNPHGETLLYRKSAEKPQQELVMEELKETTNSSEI

hNPFF1-R [3] = molecular target: T1, hNPFF1-R; test: Radioligand competition binding at NPFF1-R; settings: read-out: Receptor Binding, Ki ± SEM NPFF1-R
hNPFF2-R [4] = molecular target: T2, hNPFF2-R; test: Radioligand competition binding at NPFF2-R; settings: [3H]EYF, transfected CHO cell membranes; read-out: Receptor Binding, Ki ± SEM NPFF2-R
MOR [5] = molecular target: T3, MOR (Homo sapiens, UniProt P35372); test: Radioligand competition binding at MOR
T3 sequence (P35372 whole entry): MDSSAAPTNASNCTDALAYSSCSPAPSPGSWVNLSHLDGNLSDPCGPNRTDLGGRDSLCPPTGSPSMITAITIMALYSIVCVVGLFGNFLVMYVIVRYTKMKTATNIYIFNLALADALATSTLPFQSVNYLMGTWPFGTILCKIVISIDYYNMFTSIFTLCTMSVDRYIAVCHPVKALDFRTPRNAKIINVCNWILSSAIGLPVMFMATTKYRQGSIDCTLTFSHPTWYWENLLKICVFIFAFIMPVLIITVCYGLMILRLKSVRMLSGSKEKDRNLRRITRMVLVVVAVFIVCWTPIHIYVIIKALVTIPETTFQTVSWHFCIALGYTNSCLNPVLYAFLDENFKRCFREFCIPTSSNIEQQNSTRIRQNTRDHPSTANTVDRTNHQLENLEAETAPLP

DOR [6] = molecular target: T4, DOR (Homo sapiens, UniProt P41143); test: Radioligand competition binding at DOR; settings: read-out: Receptor Binding, Ki ± SEM DOR
T4 sequence (P41143 whole entry): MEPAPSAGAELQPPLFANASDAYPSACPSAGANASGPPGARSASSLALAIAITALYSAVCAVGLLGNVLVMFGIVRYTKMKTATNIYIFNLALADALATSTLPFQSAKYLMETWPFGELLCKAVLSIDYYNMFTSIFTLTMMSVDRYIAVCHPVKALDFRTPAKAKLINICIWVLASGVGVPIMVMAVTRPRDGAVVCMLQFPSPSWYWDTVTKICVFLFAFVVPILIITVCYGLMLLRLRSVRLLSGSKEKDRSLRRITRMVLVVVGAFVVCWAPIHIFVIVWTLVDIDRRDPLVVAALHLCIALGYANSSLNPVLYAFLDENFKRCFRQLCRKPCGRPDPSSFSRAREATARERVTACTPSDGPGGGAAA

KOR [7] = molecular target: T5, KOR (Homo sapiens, UniProt P41145); test: biochemical; format: binding
T5 sequence (P41145 whole entry): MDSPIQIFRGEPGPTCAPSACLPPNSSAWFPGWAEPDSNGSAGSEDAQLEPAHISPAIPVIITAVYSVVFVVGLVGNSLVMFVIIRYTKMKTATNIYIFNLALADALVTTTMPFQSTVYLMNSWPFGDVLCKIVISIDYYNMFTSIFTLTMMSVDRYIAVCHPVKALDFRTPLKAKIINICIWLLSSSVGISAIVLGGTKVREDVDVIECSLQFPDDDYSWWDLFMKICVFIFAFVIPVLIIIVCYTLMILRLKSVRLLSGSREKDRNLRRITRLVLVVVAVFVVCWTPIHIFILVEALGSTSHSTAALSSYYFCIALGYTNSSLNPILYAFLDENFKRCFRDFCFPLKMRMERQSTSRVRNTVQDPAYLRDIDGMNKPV

MOR [8] = molecular target: T3, MOR; test: [35S]GTPγS functional assay (agonist mode) at MOR; format: biochemical; settings: [35S]GTPγS MOR EC50 ± SEM
DOR [9] = molecular target: T4, DOR; test: [35S]GTPγS functional assay (agonist mode) at DOR; format: biochemical; settings: [35S]GTPγS DOR EC50 ± SEM, agonist mode, standard DPDPE
KOR [10] = molecular target: T5, KOR; test: [35S]GTPγS functional assay (agonist mode) at KOR; format: biochemical; settings: [35S]GTPγS KOR EC50 ± SEM, agonist mode, standard U-69,593
C57BL/6J mice [11] = test: Antinociception assay (55 °C warm water tail withdrawal assay); format: in vivo, mouse
C57BL/6J mice [12] = test: Anti-hyperalgesia assay (48 °C warm water tail withdrawal assay, NPFF-induced hyperalgesia); format: in vivo, mouse
C57BL/6J mice [13] = test: Respiration testing (CLAMS); format: in vivo, mouse; settings: 90 min
C57BL/6J mice [14] = test: Locomotor testing (CLAMS); format: in vivo, mouse; settings: 100 nmol i.c.v., 90 min
C57BL/6J mice [15] = test: Acute antinociceptive tolerance assay (55 °C warm water tail withdrawal); format: in vivo, mouse; settings: i.c.v.
[16] = Metabolic stability in rat liver microsomes; format: in vitro ADME
Protocol: In vitro metabolism of 22b (1 µM) was studied using Sprague Dawley rat liver microsomes (RLM) in a bench-top shaker for 1 h at 37 ± 0.5 °C. An aliquot (2 μL) of the stock solution (250 µM) was spiked in 0.5 mL of pre-incubated metabolic reaction mixture [50 mM Tris buffer (pH 7.4), 0.5 mg protein/mL of RLM, 20 mM magnesium chloride, and 2 mM NADPH]. Verapamil was used as the positive control to ensure the activity of the liver microsomal enzymes, and a metabolic reaction mixture without NADPH was used as the negative control in the same incubation conditions. An aliquot (40 µL) of the reaction mixture was withdrawn at 0, 5, 10, 15, 30, 45, and 60 min and quenched with 200 µL of ice-cold methanol. Samples were vortex-mixed for 2 min, followed by filtration (Multiscreen, Merck Millipore, Ireland) under vacuum. The filtrate was injected onto a UPLC-MS/MS system.
The hepatic elimination rate constant (k) was calculated directly from the slope of the natural logarithm (percent drug remaining) of the concentration vs. the time profile. In vitro half-life (t1/2), intrinsic clearance (CLint), and hepatic clearance (CLint,h) can be calculated from the equations reported in Figure S3 of the Supporting Information, where [V] is the incubation volume in mL and [P] is the amount of microsomal protein in the incubation mixture.

[17] = In vivo pharmacokinetic study, intravenous; set-up: species or system Sprague Dawley rats; settings: 5 mg/kg i.v., rat, mean (n = 6) ± SEM
Protocol: In vivo pharmacokinetic study. For the evaluation of the in vivo pharmacokinetic parameters of 22b, a pharmacokinetic study was performed in healthy male adult Sprague Dawley rats with in-dwelling jugular catheters weighing 225 ± 25 g. The animals were housed in single occupancy metabolic cages with mesh flooring and urine and feces receptacles. Six animals were dosed with 5 mg/kg intravenously, and the blood samples were collected at the following time points: pre-dose, 0.083, 0.17, 0.33, 0.50, 0.75, 1, 2, 4, 6, 8, and 10 h post-dose. All samples were stored at −80 °C until they were further analyzed. Collected plasma samples were analyzed using a validated UPLC-MS/MS method, and non-compartmental analysis of the plasma concentration data was performed using Phoenix® 6.4.
Bioanalytical method development and validation. A sensitive, accurate, and robust quantitative liquid chromatography tandem mass spectrometry (LC-MS/MS, Waters Corporation, Milford, MA, USA) method was developed and validated according to the FDA guidelines. Separation was achieved using a Waters Acquity I-Class liquid chromatography system equipped with a binary pump, a degasser, a temperature-controlled autosampler, and a column oven. The analyte was separated via gradient elution utilizing LC-MS grade water and methanol acidified with 0.02% trifluoroacetic acid (TFA, % v/v) through a 2.1 × 50 mm ACQUITY UPLC® CSH C18 column with 1.7 μm particle size (PN 186005296, SN 01463729915172). Mass detection was achieved via Waters Xevo TQS Micro triple quadrupole mass spectrometer in positive electrospray ionization (ESI^+) mode with the multiple reaction monitoring (MRM) function. The method was validated in rat plasma for the linearity range of 1–200 ng/mL. The gradient schematic and fragmentation monitoring parameters are reported in Tables S2 and S3 of the Supporting Information.

C57BL/6J mice [18] = test: Excreta assay (intestinal transit); settings: 90 min
NPFF1-R = settings: read-out: NPFF1-R Ki; Figure 1; ref [29]; cited from earlier work
[19] = male, Sprague Dawley, plasma, iv

T1 sequence (Q9GZQ6 whole entry): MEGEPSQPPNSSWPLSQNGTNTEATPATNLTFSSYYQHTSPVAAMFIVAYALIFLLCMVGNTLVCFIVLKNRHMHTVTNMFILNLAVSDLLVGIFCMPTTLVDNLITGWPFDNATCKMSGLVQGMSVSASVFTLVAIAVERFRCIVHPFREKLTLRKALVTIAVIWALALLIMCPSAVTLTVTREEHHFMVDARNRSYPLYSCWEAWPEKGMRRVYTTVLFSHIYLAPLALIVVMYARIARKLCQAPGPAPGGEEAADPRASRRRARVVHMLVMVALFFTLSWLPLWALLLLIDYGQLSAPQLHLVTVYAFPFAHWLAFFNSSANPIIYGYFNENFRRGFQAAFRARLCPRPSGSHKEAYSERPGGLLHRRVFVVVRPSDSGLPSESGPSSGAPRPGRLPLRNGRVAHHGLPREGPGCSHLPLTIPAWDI

For “1DMe: high-affinity peptidic NPFF receptor ligand (YLFQPQRF)”, the EC50 (hNPFF1-R [1]) is listed as 71 ± 14 nM and the EC50 (hNPFF2-R [2]) is listed as 2.7 ± 0.5 nM.
N=C(N)Nc1ccc(C(=C2CCN(Cc3ccccc3)CC2)c2ccccc2)cc1 [Compound 22b, 1-(4-((1-Benzylpiperidin-4-ylidene)(phenyl)methyl)phenyl)guanidine] showed a Ki (hNPFF1-R [3]) of 929 ± 183 nM, a Ki (hNPFF2-R [4]) of 272 ± 1 nM and a Ki (MOR [5]) of 428 ± 33 nM. It also gave a Ki (DOR [6]) of 11.4 ± 4.3 nM, a Ki (KOR [7]) of 270 ± 43 nM and an EC50 (MOR [8]) of 576 ± 311 nM. The EC50 (DOR [9]) was 539 ± 93.2 nM, the EC50 (KOR [10]) was 2710 ± 398 nM and the “antinociceptive activity over time (screening)” value (C57BL/6J mice [11]; 30 nmol i.c.v., 55 °C) was “induced the greatest tail withdrawal latencies”. For the same compound, the “antinociceptive response after pretreatment with DOR-selective antagonist naltrindole” value (C57BL/6J mice [11]; 22b 30 nmol i.c.v., naltrindole 20 mg/kg i.p. 20 min before, 40 min) was “did not alter the antinociceptive response”, the “antinociceptive response after pretreatment with KOR-selective antagonist nor-BNI” value (C57BL/6J mice [11]; 22b 30 nmol i.c.v., nor-BNI 10 mg/kg i.p. 24 h before, 40 min) was “did not alter the antinociceptive response” and the “antinociceptive activity after pretreatment with MOR-selective antagonist β-FNA” value (C57BL/6J mice [11]; 22b 30 nmol i.c.v., β-FNA 5 mg/kg s.c. 24 h before, 40 min) was “almost completely abolished”. For the same compound, the ED50 (C57BL/6J mice [11]; Mus musculus, ip, 10 min, i.p., 10 min after administration, 55 °C, read-out: antinociception ED50 (95% confidence interval)) was 3.61 mg/kg, the “antinociception ED50 (95% confidence interval)” value (C57BL/6J mice [11]; i.c.v., 40 min after administration, 55 °C) was 6.88 (4.71–9.47) nmol and the “duration of antinociceptive effect” value (C57BL/6J mice [11]; i.p. administration) was “no more than 50 min”. For the same compound, the “prevention of NPFF-induced hyperalgesia (screening)” value (C57BL/6J mice [12]; 30 nmol i.c.v. two hours before NPFF 30 nmol i.c.v.) was “more moderate, yet still statistically significant, effect”, the “prevention of NPFF-induced hyperalgesia after peripheral pretreatment” value (C57BL/6J mice [12]; 10 mg/kg i.p. pretreatment, NPFF 30 nmol i.c.v.) was “significant antagonism” and the “effect on respiration rate” value (C57BL/6J mice [13]; 30 nmol i.c.v.) was “no marked reduction in respiration”. The “effect on respiration rate” value (C57BL/6J mice [13]; 100 nmol i.c.v.) was “increased respiration rate”, the “effect on ambulation (spontaneous locomotor activity)” value (C57BL/6J mice [14]) was “not significantly greater than that of the vehicle” and the “antinociception ED50 (95% CI), second administration” value (C57BL/6J mice [15]; given 8 h after a first dose (morphine 3 nmol, 22b 8.7 nmol), 55 °C) was 10.8 (5.89–21.1) nmol. The “rightward shift of antinociceptive dose response (acute tolerance)” value (C57BL/6J mice [15]; second administration 8 h after first) was 1.6 fold, the “compound remained unchanged after 1 h of incubation” value ([16]; 1 µM, RLM, with NADPH) was 25.5% and the “stability in negative control reaction mixture” value ([16]; RLM without NADPH) was “metabolism of the compound was also observed”. The half-life at 1 µM ([16]; Sprague Dawley, rat, liver microsomes, pH 7.4, 1 µM, RLM, read-out: in vitro half-life) was 0.517 ± 0.0133 h, the “intrinsic clearance (CLint)” value ([16]; pooled rat liver microsomes) was 0.045 ± 0.001 mL/min per milligram of microsomal protein and the AUC/dose0_inf [17] was 3004.7 ± 108.1 ng·h/mL/mg. It also gave a C0 [17, 19] of 9150 ± 3740 ng/mL, a Vd [17, 19] of 2 ± 0.2 L and a clearance [17, 19] of 5 mL/min. For the same compound, the half-life [17, 19] was 4.1 ± 0.5 h, the k el ([17]; male, Sprague Dawley, plasma, iv, read-out: k (elimination rate constant) (converted)) was 5.56e-05 s⁻¹ and the “number of excreted fecal boli” value (C57BL/6J mice [18]; 30 nmol i.c.v.) was 3.5 ± 0.7 boli. For the same compound, the “number of excreted fecal boli” value (C57BL/6J mice [18]; 100 nmol i.c.v.) was 4.1 ± 0.6 boli.
In the case of N=C(N)NCCNC(=O)C1(Nc2ccccc2)CCN(Cc2ccccc2)CC1 [compound 2], the Ki (NPFF1-R) is listed as 81 ± 17 nM.
